# Experimental data as given in ChEMBL document CHEMBL3885861, “Open TG-GATES”.
# Species: Rattus norvegicus
# Experiment: Open TG-GATES - Regimen: Daily Repeat
# Type: toxicity, organism-based, Sprague-Dawley
# Parameters: regimen Daily Repeat, gender Male, age 6 weeks
# Settings: in vivo, po, route diet; for Hb / Ht / MCH / MCHC / MCV / Plat / RBC / Ret / WBC: tissue Blood; for KIDNEY_L / KIDNEY_R / KIDNEY_TOTAL: tissue Kidney; for LIVER: tissue Liver; for A/G / ALP / ALT / AST / BUN / CRE / Ca / Cl / DBIL / GLC / IP / K / LDH / Na / PL / RALB / TBIL / TC / TG / TP / gamma-GTP: tissue Plasma
# [1] = 72 h, dose 0 %, dose level Control, time 3 day
# [2] = 72 h, dose 9999 %, dose level High, time 3 day
# [3] = […], dose 0 %, dose level Control, time 7 day
# [4] = […], dose 0 %, dose level Control, time 14 day
# [5] = […], dose 0 %, dose level Control, time 28 day
# [6] = […], dose 9999 %, dose level High, time 7 day
# [7] = […], dose 9999 %, dose level High, time 14 day
# [8] = […], dose 9999 %, dose level High, time 28 day
compound,measurement,setting,value
CC(C)CCC[C@@H](C)[C@H]1CC[C@H]2[C@@H]3CC=C4C[C@@H](O)CC[C@]4(C)[C@H]3CC[C@]12C.C[C@H](CCC(=O)[O-])[C@H]1CC[C@@H]2[C@]1(C)[C@@H](O)C[C@@H]1[C@@]3(C)CC[C@@H](O)C[C@H]3C[C@@H](O)[C@@]21C.[Na+] [cholesterol + sodium cholate],TERMINAL_BW,[1],232.1 g
same,TERMINAL_BW,[2],241.9 g
same,Hb,[1],12.9 g/dL
same,Ht,[1],35.6%
same,MCH,[1],23.1 pg
same,MCHC,[1],36.2%
same,MCV,[1],63.7 fL
same,Plat,[1],121.7 x10_4/uL
same,RBC,[1],558.2 x10_4/ul
same,Ret,[1],6.9%
same,WBC,[1],5.6 x10_2/uL
same,Hb,[2],12.6 g/dL
same,Ht,[2],35%
same,MCH,[2],22.5 pg
same,MCHC,[2],35.9%
same,MCV,[2],62.6 fL
same,Plat,[2],107.6 x10_4/uL
same,RBC,[2],559.2 x10_4/ul
same,Ret,[2],7%
same,WBC,[2],5.8 x10_2/uL
same,KIDNEY_L,[1],1 g
same,KIDNEY_R,[1],1 g
same,KIDNEY_TOTAL,[1],2 g
same,KIDNEY_R,[2],1.1 g
same,KIDNEY_TOTAL,[2],2.1 g
same,LIVER,[1],10.6 g
same,LIVER,[2],12.1 g
same,A/G,[1],1
same,ALP,[1],1907.2 IU/L
same,ALT,[1],41.8 IU/L
same,AST,[1],69 IU/L
same,BUN,[1],17.8 mg/dL
same,CRE,[1],0.2 mg/dL
same,Ca,[1],10.6 mg/dL
same,Cl,[1],102.1 meq/L
same,DBIL,[1],0 mg/dL
same,GLC,[1],176 mg/dL
same,IP,[1],7.2 mg/dL
same,K,[1],4.3 meq/L
same,LDH,[1],113.2 IU/L
same,Na,[1],139.7 meq/L
same,PL,[1],161.4 mg/dL
same,RALB,[1],2.9 g/dL
same,TBIL,[1],0 mg/dL
same,TC,[1],75 mg/dL
same,TG,[1],106.9 mg/dL
same,TP,[1],5.7 g/dL
same,gamma-GTP,[1],0.9 IU/L
same,ALP,[2],2118 IU/L
same,ALT,[2],42.4 IU/L
same,AST,[2],72.2 IU/L
same,BUN,[2],20.4 mg/dL
same,Ca,[2],10.8 mg/dL
same,Cl,[2],101.4 meq/L
same,GLC,[2],182.8 mg/dL
same,IP,[2],7.7 mg/dL
same,K,[2],4.5 meq/L
same,LDH,[2],149.4 IU/L
same,Na,[2],139.4 meq/L
same,PL,[2],157.4 mg/dL
same,TC,[2],187.2 mg/dL
same,TG,[2],136.6 mg/dL
same,TP,[2],5.9 g/dL
same,gamma-GTP,[2],0.8 IU/L
same,TERMINAL_BW,[3],274.4 g
same,TERMINAL_BW,[4],313.6 g
same,TERMINAL_BW,[5],422.8 g
same,TERMINAL_BW,[6],281.4 g
same,TERMINAL_BW,[7],337.1 g
same,TERMINAL_BW,[8],433.7 g
same,Hb,[3],13.2 g/dL
same,Ht,[3],36.5%
same,MCH,[3],22.4 pg
same,MCHC,[3],36.1%
same,MCV,[3],62.2 fL
same,Plat,[3],127.7 x10_4/uL
same,RBC,[3],587.8 x10_4/ul
same,Ret,[3],5.5%
same,WBC,[3],8.6 x10_2/uL
same,Hb,[4],12.6 g/dL
same,Ht,[4],38.3%
same,MCH,[4],19.3 pg
same,MCHC,[4],32.8%
same,MCV,[4],58.7 fL
same,Plat,[4],111.1 x10_4/uL
same,RBC,[4],654 x10_4/ul
same,Ret,[4],4.2%
same,WBC,[4],44.3 x10_2/uL
same,Hb,[5],13.3 g/dL
same,Ht,[5],39.2%
same,MCH,[5],18.8 pg
same,MCHC,[5],33.9%
same,MCV,[5],55.4 fL
same,Plat,[5],101.1 x10_4/uL
same,RBC,[5],707.2 x10_4/ul
same,Ret,[5],3%
same,WBC,[5],55.7 x10_2/uL
same,Hb,[6],12.5 g/dL
same,Ht,[6],34.9%
same,MCH,[6],21.6 pg
same,MCHC,[6],35.7%
same,MCV,[6],60.7 fL
same,Plat,[6],142.4 x10_4/uL
same,RBC,[6],574.8 x10_4/ul
same,Ret,[6],5.6%
same,WBC,[6],7.3 x10_2/uL
same,Hb,[7],11.8 g/dL
same,Ht,[7],36%
same,MCH,[7],19.1 pg
same,MCHC,[7],32.7%
same,MCV,[7],58.3 fL
same,Plat,[7],148.5 x10_4/uL
same,RBC,[7],617.4 x10_4/ul
same,Ret,[7],4.7%
same,WBC,[7],30.6 x10_2/uL
same,Hb,[8],13.1 g/dL
same,Ht,[8],39%
same,MCHC,[8],33.6%
same,MCV,[8],55.9 fL
same,Plat,[8],116.2 x10_4/uL
same,RBC,[8],698.8 x10_4/ul
same,Ret,[8],3.2%
same,WBC,[8],50.2 x10_2/uL
same,KIDNEY_L,[3],1.1 g
same,KIDNEY_R,[3],1.1 g
same,KIDNEY_TOTAL,[3],2.2 g
same,KIDNEY_L,[4],1.2 g
same,KIDNEY_R,[4],1.2 g
same,KIDNEY_TOTAL,[4],2.3 g
same,KIDNEY_L,[5],1.4 g
same,KIDNEY_R,[5],1.4 g
same,KIDNEY_TOTAL,[5],2.8 g
same,KIDNEY_L,[6],1.2 g
same,KIDNEY_R,[6],1.2 g
same,KIDNEY_TOTAL,[6],2.4 g
same,KIDNEY_L,[7],1.3 g
same,KIDNEY_R,[7],1.4 g
same,KIDNEY_TOTAL,[7],2.6 g
same,KIDNEY_L,[8],1.6 g
same,KIDNEY_R,[8],1.6 g
same,KIDNEY_TOTAL,[8],3.2 g
same,LIVER,[3],12.4 g
same,LIVER,[4],13.6 g
same,LIVER,[5],17.9 g
same,LIVER,[6],16.3 g
same,LIVER,[7],18.6 g
same,LIVER,[8],24.7 g
same,A/G,[3],1
same,ALP,[3],1589.8 IU/L
same,ALT,[3],34 IU/L
same,AST,[3],67.4 IU/L
same,BUN,[3],19.6 mg/dL
same,CRE,[3],0.2 mg/dL
same,Ca,[3],10.4 mg/dL
same,Cl,[3],105.2 meq/L
same,DBIL,[3],0 mg/dL
same,GLC,[3],193.4 mg/dL
same,IP,[3],7.3 mg/dL
same,K,[3],4.4 meq/L
same,LDH,[3],160.6 IU/L
same,Na,[3],141.5 meq/L
same,PL,[3],154.8 mg/dL
same,RALB,[3],2.8 g/dL
same,TBIL,[3],0 mg/dL
same,TC,[3],75.4 mg/dL
same,TG,[3],124.4 mg/dL
same,TP,[3],5.7 g/dL
same,gamma-GTP,[3],0.9 IU/L
same,A/G,[4],1
same,ALP,[4],1612.2 IU/L
same,ALT,[4],38.4 IU/L
same,AST,[4],79.8 IU/L
same,BUN,[4],18.5 mg/dL
same,CRE,[4],0.2 mg/dL
same,Ca,[4],10.5 mg/dL
same,Cl,[4],103.4 meq/L
same,DBIL,[4],0.002 mg/dL
same,GLC,[4],203.6 mg/dL
same,IP,[4],6.5 mg/dL
same,K,[4],3.7 meq/L
same,LDH,[4],284.8 IU/L
same,Na,[4],141.8 meq/L
same,PL,[4],139.4 mg/dL
same,RALB,[4],2.9 g/dL
same,TBIL,[4],0 mg/dL
same,TC,[4],62.4 mg/dL
same,TG,[4],145.6 mg/dL
same,TP,[4],5.8 g/dL
same,gamma-GTP,[4],1 IU/L
same,A/G,[5],0.8
same,ALP,[5],1365 IU/L
same,ALT,[5],31.4 IU/L
same,AST,[5],56.2 IU/L
same,BUN,[5],17.7 mg/dL
same,CRE,[5],0.2 mg/dL
same,Ca,[5],10.3 mg/dL
same,Cl,[5],103.3 meq/L
same,DBIL,[5],0.006 mg/dL
same,GLC,[5],210.8 mg/dL
same,IP,[5],6.4 mg/dL
same,K,[5],4.2 meq/L
same,LDH,[5],103.6 IU/L
same,Na,[5],139 meq/L
same,PL,[5],143.8 mg/dL
same,RALB,[5],2.8 g/dL
same,TBIL,[5],0 mg/dL
same,TC,[5],68.2 mg/dL
same,TG,[5],180.9 mg/dL
same,TP,[5],6 g/dL
same,gamma-GTP,[5],0.9 IU/L
same,A/G,[6],0.9
same,ALP,[6],1845.8 IU/L
same,ALT,[6],43.4 IU/L
same,AST,[6],79.8 IU/L
same,BUN,[6],18.6 mg/dL
same,Ca,[6],10.7 mg/dL
same,Cl,[6],103.2 meq/L
same,GLC,[6],190 mg/dL
same,IP,[6],7.6 mg/dL
same,K,[6],4.5 meq/L
same,LDH,[6],179.4 IU/L
same,Na,[6],140.8 meq/L
same,PL,[6],174 mg/dL
same,RALB,[6],3 g/dL
same,TC,[6],181 mg/dL
same,TG,[6],141.6 mg/dL
same,TP,[6],6.2 g/dL
same,gamma-GTP,[6],1.1 IU/L
same,A/G,[7],0.8
same,ALP,[7],1718.2 IU/L
same,ALT,[7],35.4 IU/L
same,AST,[7],68 IU/L
same,BUN,[7],18.4 mg/dL
same,Ca,[7],10.8 mg/dL
same,Cl,[7],101.7 meq/L
same,DBIL,[7],0 mg/dL
same,GLC,[7],200.2 mg/dL
same,IP,[7],6.7 mg/dL
same,K,[7],4.2 meq/L
same,LDH,[7],181.2 IU/L
same,Na,[7],141.2 meq/L
same,PL,[7],142.8 mg/dL
same,TC,[7],158.2 mg/dL
same,TG,[7],121.9 mg/dL
same,TP,[7],6.5 g/dL
same,gamma-GTP,[7],1.1 IU/L
same,ALP,[8],1155 IU/L
same,ALT,[8],34.6 IU/L
same,AST,[8],62.8 IU/L
same,BUN,[8],16.6 mg/dL
same,Ca,[8],10.7 mg/dL
same,Cl,[8],100.9 meq/L
same,DBIL,[8],0 mg/dL
same,GLC,[8],194 mg/dL
same,IP,[8],6.5 mg/dL
same,K,[8],3.9 meq/L
same,LDH,[8],135 IU/L
same,Na,[8],140.2 meq/L
same,PL,[8],146.2 mg/dL
same,RALB,[8],3 g/dL
same,TC,[8],147.6 mg/dL
same,TG,[8],120.2 mg/dL
same,TP,[8],6.8 g/dL
